Patent EP1785417A2, “Novel non-psychotropic cannabinoids” (priority 2000, dated 2001)
Read-outs that look alike come from different tables or passages of the source.

Legend:
[1] = test system: NMDA receptor; assay: Radioligand binding: displacement of [3H]MK-801 from rat forebrain membranes; settings: for NMDA receptor binding / affinity: MK-801 binding to membranes
Source text: Evaluation of the therapeutic effects of the novel PRS-211 compounds has now been carried out in a series of experimental systems to support the utility of these drugs as neuroprotectants, anti-inflammatory agents and anti-oxidative agents. These effects have been evaluated both in vitro and in vivo, and have been corroborated utilizing the following systems: • (a) Binding to the NMDA receptor linked channel: Non competitive antagonists of NMDA, the primary example of which is the compound MK-801, bind to a site within the NMDA receptor channel thus preventing the activation of the receptor-channel complex and the consequent neurotoxicity. The ability of various compounds to compete with the binding of tritium labeled MK-801 to brain membranes is considered a measure of their potency as NMDA non-competitive antagonists. • (b) Inhibition of prostaglandin production: The inhibitory effect of the new derivatives of Dexanabinol on prostaglandin synthesis is evaluated in macrophage cell cultures following LPS exposure to induce the inflammatory response. These assays are an indication of the anti-inflammatory activity of the individual analogs. • (c) Inhibition of Tumor Necrosis Factor Alpha: Specific aspects of the inflammatory response cascade are mediated by the cytokine TNFα. Inhibition of TNFα production and/or inhibition of TNFα release by the new analogs are assayed in macrophage cell cultures activated with LPS. This serves as another indication of the general anti-inflammatory potential of the novel compounds. • (d) Nitric Oxide Assay: As one aspect of the anti-oxidative potential of the novel analogs they were tested for their ability to inhibit the enzyme nitric oxide synthase (NOS). This assay can also serve as another indication of the anti-inflammatory cascade, as well as the anti-oxidative mechanisms. • (e) Ear Edema model: The anti-inflammatory activity of the new analogs is screened using an ear edema model in mice. This test system utilizes Croton oil or Arachidonic acid as inflammation inducers. The ability of the test compounds to prevent or diminish the inflammatory response to these stimulants is indicative of their systemic anti-inflammatory capability. • (f) Improved clinical outcome after closed head injury in rats: Severe head injury is associated with high mortality and severe neurological impairment. Animals subjected to head trauma in a controlled fashion serve as models in which to test drugs of therapeutic potential. Test compounds can be evaluated both for improved clinical outcome and for reduction of edema induced by closed head injury. The ability of compounds to reduce the severity of neurological symptoms and to reduce brain edema is considered a measure of their potency in reducing brain damage. • (g) Transient Middle cerebral artery occlusion (MCAo): The middle cerebral artery is the cerebral blood vessel most susceptible to stroke in humans. In animals, coagulation, permanent ligation or permanent placement of an occluding thread in the artery produces a permanent focal stroke affecting the MCA territory. Transient ligation or occlusion results in transient focal stroke. Both transient and permanent focal strokes result in varying degrees of edema and infarction in the affected brain regions. The ability of compounds to reduce the volumes of edema and infarction is considered a measure of their potential as anti-stroke treatment. • (h) Optic Nerve Crush: Application of mechanical pressure to the rat optical nerve results in crush injury of the axons, which is accompanied by immediate changes in oxidative metabolism and delayed axonal death and blindness. […]

[2] = test system: AMPA; assay: Radioligand binding: inhibition of AMPA binding to membranes; set-up: species or system rat
[3] = test system: kainic acid; assay: Radioligand binding: inhibition of kainic acid binding to membranes; set-up: species or system rat
[4] = even at doses several thousand times higher than the ED50 of HU-210; cited from earlier work
[5] = [3H]MK-801 binding, text to Figure 2, read-out: mean IC50
[6] = displacement of [3H]MK-801, rat forebrain membranes, read-out: NMDA BINDING IC50

With CCCCCCC(C)(C)c1cc(O)c2c(c1)OC(C)(C)[C@H]1CC=C(Cn3ccnc3)C[C@H]21 (single isomer, unassigned) [211,095-000] as the compound, how does the “NMDA receptor binding / affinity” value [1] read?
The value was “relatively high affinity”.

What about the IC50 [1, 5] of the same compound?
Its IC50 is 2.5 µM.

What about the IC50 [1, 6] of the same compound?
The IC50 was 2.5 µM.

With CCCCCCC(C)(C)c1cc(O)c2c(c1)OC(C)(C)[C@H]1CC=C(CO)C[C@H]21 [211,007-000 HU-211, 1,1 dimethyl heptyl-(3 S,4S)-7-hydroxy-Δ^6-tetrahydrocannabinol, reference compound] as the compound, how does the “NMDA receptor binding / affinity” value [1] read?
Its value is “competes with the binding of MK-801”.

And the IC50 [1, 5]?
Its IC50 is 10 µM.

And the IC50 [1, 6]?
The IC50 was 10 µM.

What about the Ki ([1]; inhibition of [3H]MK-801 binding, read-out: inhibition constant (KI)) of the same compound?
Its Ki is 11 ± 1.3 µM.

What about the “inhibition of AMPA binding” value [2] of the same compound?
Its value is “unable to inhibit”.

What about the “inhibition of kainic acid binding” value [3] of the same compound?
The value was “unable to inhibit”.

What about the “cannabimimetic activity” value [4] of the same compound?
Its value is “inactive”.
